Source: ChEMBL document CHEMBL5465560, “Selectivity Literature for EUbOPEN Chemogenomic Library” (2024)

What was measured:
[1] = molecular target: T1, Receptor-interacting serine/threonine-protein kinase 1 (Homo sapiens) (UniProt Q13546); test: Selectivity interaction (Kinase panel (Eurofins)) EUB0001564a RIPK1; conditions: at 1 µM
T1 sequence (whole entry): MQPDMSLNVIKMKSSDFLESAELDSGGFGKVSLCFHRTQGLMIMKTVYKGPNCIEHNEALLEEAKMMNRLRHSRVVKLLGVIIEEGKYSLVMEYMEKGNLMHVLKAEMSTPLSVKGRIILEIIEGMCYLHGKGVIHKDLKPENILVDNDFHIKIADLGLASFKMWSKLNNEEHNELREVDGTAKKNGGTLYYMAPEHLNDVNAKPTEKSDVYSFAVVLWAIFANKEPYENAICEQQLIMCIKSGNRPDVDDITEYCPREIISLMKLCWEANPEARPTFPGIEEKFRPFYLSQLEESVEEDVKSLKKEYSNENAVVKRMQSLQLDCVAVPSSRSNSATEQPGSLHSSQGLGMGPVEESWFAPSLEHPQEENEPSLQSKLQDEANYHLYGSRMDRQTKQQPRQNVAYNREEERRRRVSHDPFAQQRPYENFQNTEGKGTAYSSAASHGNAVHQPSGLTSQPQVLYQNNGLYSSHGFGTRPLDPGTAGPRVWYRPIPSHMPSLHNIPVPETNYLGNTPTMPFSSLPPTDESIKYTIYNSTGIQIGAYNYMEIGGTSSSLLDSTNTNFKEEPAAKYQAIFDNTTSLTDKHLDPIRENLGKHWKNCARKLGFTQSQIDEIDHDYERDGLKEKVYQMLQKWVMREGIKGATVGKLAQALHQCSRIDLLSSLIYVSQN

[2] = molecular target: T2, Serine/threonine-protein kinase D3 (Homo sapiens) (UniProt O94806); conditions: at 10 µM
T2 sequence (whole entry): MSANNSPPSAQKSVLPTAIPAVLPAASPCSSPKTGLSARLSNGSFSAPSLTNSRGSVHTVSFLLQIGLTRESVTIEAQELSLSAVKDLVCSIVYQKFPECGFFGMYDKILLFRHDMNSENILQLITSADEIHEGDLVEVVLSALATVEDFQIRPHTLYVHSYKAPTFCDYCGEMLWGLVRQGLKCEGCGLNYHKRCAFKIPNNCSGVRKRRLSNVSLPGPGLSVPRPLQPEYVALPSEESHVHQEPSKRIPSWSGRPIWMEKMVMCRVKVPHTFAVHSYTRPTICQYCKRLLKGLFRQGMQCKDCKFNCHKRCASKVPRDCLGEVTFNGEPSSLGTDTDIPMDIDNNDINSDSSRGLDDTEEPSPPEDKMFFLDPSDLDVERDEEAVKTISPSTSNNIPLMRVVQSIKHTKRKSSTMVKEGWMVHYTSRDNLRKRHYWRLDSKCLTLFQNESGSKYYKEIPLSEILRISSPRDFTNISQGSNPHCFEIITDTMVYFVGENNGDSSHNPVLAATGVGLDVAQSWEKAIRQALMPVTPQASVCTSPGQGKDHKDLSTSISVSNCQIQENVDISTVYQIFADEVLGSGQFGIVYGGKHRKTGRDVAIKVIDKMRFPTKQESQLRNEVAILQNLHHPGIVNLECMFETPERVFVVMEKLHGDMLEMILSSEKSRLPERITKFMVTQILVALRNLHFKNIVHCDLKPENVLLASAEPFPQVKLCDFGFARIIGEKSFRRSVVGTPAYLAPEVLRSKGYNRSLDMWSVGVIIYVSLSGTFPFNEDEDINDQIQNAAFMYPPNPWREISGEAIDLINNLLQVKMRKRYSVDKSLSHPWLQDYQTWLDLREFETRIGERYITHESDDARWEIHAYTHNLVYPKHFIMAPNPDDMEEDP

[3] = test system: Tyrosine-protein kinase ABL1 (Homo sapiens), P00519 [F317I]; test: Selectivity interaction (KinomeScan (DiscoverX)) EUB0000045b ABL1; conditions: at 1 µM
Chain of Tyrosine-protein kinase ABL1 (Homo sapiens), P00519 [F317I] (P00519 whole entry F317I): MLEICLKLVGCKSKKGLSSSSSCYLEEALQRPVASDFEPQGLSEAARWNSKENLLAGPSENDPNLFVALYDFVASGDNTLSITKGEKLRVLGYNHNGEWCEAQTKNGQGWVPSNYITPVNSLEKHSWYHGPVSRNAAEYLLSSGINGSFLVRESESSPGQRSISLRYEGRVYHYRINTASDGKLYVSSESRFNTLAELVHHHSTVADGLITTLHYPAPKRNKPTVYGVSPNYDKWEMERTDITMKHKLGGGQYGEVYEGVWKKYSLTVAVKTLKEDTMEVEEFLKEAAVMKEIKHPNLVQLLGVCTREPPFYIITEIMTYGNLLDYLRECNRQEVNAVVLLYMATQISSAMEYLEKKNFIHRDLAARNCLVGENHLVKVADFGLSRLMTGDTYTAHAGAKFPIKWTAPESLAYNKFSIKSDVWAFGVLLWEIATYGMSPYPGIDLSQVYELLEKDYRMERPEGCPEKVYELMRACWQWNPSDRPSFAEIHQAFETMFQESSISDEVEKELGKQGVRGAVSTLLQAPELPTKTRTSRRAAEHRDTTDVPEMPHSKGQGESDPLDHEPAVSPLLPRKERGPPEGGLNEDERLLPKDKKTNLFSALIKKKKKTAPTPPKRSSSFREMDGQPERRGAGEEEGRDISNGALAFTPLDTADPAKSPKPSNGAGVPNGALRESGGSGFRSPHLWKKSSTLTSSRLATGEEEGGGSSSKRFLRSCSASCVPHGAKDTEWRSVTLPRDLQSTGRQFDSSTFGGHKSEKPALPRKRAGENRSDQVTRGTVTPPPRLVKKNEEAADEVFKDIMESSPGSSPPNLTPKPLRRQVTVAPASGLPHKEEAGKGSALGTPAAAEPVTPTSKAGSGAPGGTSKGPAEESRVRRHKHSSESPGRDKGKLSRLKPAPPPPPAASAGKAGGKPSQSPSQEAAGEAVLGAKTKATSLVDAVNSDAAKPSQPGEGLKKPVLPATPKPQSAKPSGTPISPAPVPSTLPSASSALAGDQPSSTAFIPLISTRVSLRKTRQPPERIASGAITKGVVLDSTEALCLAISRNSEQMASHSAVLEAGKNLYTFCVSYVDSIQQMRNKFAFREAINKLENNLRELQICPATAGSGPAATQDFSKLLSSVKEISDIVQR

[4] = molecular target: T3, Serine/threonine-protein kinase BRSK2 (Homo sapiens) (UniProt Q8IWQ3); test: Selectivity interaction (KinomeScan (DiscoverX)) EUB0001619a BRSK2; conditions: at 1 µM
T3 sequence (whole entry): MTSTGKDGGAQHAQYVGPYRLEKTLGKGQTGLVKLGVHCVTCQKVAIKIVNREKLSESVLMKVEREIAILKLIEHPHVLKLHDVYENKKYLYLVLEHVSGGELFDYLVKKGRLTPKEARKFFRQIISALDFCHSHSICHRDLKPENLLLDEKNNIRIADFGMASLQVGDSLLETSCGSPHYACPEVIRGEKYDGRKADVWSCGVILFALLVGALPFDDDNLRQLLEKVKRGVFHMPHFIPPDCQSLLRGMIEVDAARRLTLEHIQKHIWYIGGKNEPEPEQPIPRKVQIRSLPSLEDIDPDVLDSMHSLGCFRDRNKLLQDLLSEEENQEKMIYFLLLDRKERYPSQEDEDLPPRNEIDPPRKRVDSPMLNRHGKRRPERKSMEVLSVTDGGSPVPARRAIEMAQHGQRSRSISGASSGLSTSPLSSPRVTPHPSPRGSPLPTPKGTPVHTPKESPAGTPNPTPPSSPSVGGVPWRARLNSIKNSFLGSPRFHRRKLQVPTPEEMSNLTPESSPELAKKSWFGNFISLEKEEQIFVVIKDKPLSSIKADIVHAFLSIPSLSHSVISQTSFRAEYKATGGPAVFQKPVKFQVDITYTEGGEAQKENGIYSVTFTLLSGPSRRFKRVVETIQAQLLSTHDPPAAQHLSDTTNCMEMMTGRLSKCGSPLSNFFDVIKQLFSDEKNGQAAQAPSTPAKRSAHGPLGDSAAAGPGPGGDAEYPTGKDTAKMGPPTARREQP

[5] = molecular target: Glycogen synthase kinase-3 beta (Homo sapiens, UniProt P49841); test: Selectivity interaction (Kinase panel (Z-LYTE Assay)) EUB0001632a GSK3B; conditions: at 10 µM
Chain of Glycogen synthase kinase-3 beta (P49841 whole entry, looked up): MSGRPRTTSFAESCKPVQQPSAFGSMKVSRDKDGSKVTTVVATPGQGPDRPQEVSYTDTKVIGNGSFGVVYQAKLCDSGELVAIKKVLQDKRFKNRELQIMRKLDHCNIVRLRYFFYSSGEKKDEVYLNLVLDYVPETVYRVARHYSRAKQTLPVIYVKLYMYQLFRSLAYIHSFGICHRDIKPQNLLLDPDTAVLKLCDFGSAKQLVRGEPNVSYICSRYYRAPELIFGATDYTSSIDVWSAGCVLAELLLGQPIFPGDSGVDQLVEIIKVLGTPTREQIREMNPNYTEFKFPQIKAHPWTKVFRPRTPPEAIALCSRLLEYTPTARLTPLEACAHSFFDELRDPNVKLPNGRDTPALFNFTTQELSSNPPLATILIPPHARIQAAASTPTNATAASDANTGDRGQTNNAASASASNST

SMILES: CC[C@@H](Nc1c(C#N)c(-c2ccc(-c3cccc(C)c3F)cc2)nc2cnccc12)C(=O)O [BAY-091]
- % of inhibition [1]: 21.2%

SMILES: CCN(CC)CCCCNc1ncc2cc(-c3cc(OC)cc(OC)c3)c(NC(=O)NC(C)(C)C)nc2n1
- % of control [2]: 100%

SMILES: C=CC(=O)Nc1cc(-n2c(=O)ccc3cnc4ccc(-c5ccc(NS(C)(=O)=O)cc5)cc4c32)ccc1C
- % of control [3]: 81%

SMILES: N#Cc1cccc(-c2c[nH]c3ncnc(N4CCOCC4)c23)c1
- % of control [4]: 85%

SMILES: Cn1cc(-n2cnc3c(NCc4nc5cc(Cl)c(Cl)cc5[nH]4)nc(N4CCOCC4)nc32)cn1
- % of control [5]: 89.1%
